Test results from US9895321B2, “Vaccines, methods of administering vaccines, methods and products for treating and/or delaying onset of dysplastic lesions, and wafers for oral administration” (AKTIV-DRY LLC, priority 2010, dated 2018).

What was measured:
P13K = details: conclusion of Gustafson et al; cited from earlier work
dysplastic lesions = details: three months, cited from earlier work
[1] = format: physicochemical
Text: In certain embodiments of the invention, the dry powder compositions may comprise myo-inositol (cis-1,2,3,5-trans-4,6-cyclohexanehexyl). Dry powder compositions comprising myo-inositol are disclosed in the Sievers et al U.S. Patent Application No. 2008/0035143 A1, incorporated herein in its entirety, although other myo-inositol dry powder compositions, including those generally and/or specifically disclosed herein are also suitable for use in embodiments of the present invention. Dry powder compositions comprising myo-inositol may optionally further include one or more of amino acids, for example, arginine, alanine, histidine, leucine, and/or methionine, surfactants, for example, palmitic acid, stearic acid, Tween 20, Tween 80, and/or Pluronic F68, stabilizers, buffers, for example, tricine, sodium or potassium phosphate, sodium acetate, and/or sodium citrate, metal chelating agents, for example EDTA and/or DTPA, gelatin, albumin, or the like. In one specific embodiment, myo-inositol and leucine are employed in a 98.5:1.5 weight ratio. Advantageously, myo-inositol dry powder compositions containing one or more additional components are provided using the CAN-BD process. It has been discovered that when pure myo-inositol is processed by the CAN-BD process at a temperature of about 50° C., a crystal polymorph which is different from the common crystal polymorph of native myo-inositol forms. This polymorph has an exothermic transition with onset of 110-130° C. and appears to be thermally stable at room temperature for only short periods of time (less than 2 weeks), but remains for longer periods of time when stored at temperatures of 2-8° C. (for at least 3 months and up to 5 months), and is removed by annealing at 115° C. or above. The moisture content of this new polymorph is very low (0.1% water) and identical to the moisture content of native myo-inositol. The X-ray diffraction pattern of this polymorph differs from those of native myo-inositol and a previously disclosed myo-inositol dihydrate (Bonnet 2006). […]

| SMILES | P13K inhibition (P13K) | maximum tolerated dose (dysplastic lesions; oral administration to the gastrointestinal tract) [grams per day] | regression in dysplastic lesions (dysplastic lesions; oral, mild to moderate airway dysplasia) | period of thermal stability [1] | moisture content ([1]; new polymorph, identical to native myo-inositol) [% water] | period for which the polymorph remains ([1]; stored at 2-8° C.) |
| --- | --- | --- | --- | --- | --- | --- |
| O[C@H]1[C@H](O)[C@@H](O)[C@H](O)[C@@H](O)[C@H]1O [myo-inositol, cis-1,2,3,5-trans-4,6-cyclohexanehexyl] | P13K inhibitor | 18 | significant regression |  |  |  |
| O[C@H]1[C@H](O)[C@@H](O)[C@H](O)[C@@H](O)[C@H]1O [crystal polymorph, myo-inositol] |  |  |  | less than 2 weeks | 0.1 | at least 3 months |
